{
  "source": "patent US8835617B2",
  "about": "“Polynucleotides encoding a human TRIM-Cyp fusion polypeptide, compositions thereof, and methods of using same” (priority 2008, dated 2014)",
  "test_system": "HIV-1NL4-3",
  "assay": "hCD4+-Rag2-/-γc-/- mice infected with HIV-1 four to five days after adoptive transfer",
  "type": "in vivo",
  "source_text": "Age-matched, 6-10 week-old Rag2^−/−γc^−/− mice were conditioned with clodronate and sublethal irradiation (van Rijn et al., 2003), and injected intraperitoneally with 2.5×10^6 transduced CD4^+ T cells (FIG. 68A,B).\nRag2^−/−γc^−/− mice on a BALB/c background (provided by M. Ito; Central Institute for Experimental Animals, Kawasaki, Japan) were bred and maintained under specific pathogen-free conditions in accordance with the guidelines of the animal facility at the Institute for Research in Biomedicine. CL2 MBP (clodronate) was from Roche Diagnostics (Mannheim, Germany). Preparation of liposomes containing CL2 MBP was done as described previously (Van Rooijen and Sanders, 1994). 6-10 week-old mice received 100 ul of clodronate liposomes intraperitoneally (i.p.) 24 hours prior to irradiation using a single sublethal dose of 4.0 Gray (Gy) from a Cesium 137 source (Biobeam 8000, STS GmbH, Braunschweig, Germany) at 3.75 Gy/min. […] CD4^+ T cell engraftment and maintenance in mice was measured by flow cytometry. To obtain peripheral blood cells and plasma, mice were bled from the retro-orbital venous sinus under anesthesia and red blood cells were lysed. When sacrificed, single cell suspensions from organs were prepared. For FACS analysis monoclonal antibodies against the following antigens were used: CD3 (UCHT1), CD4 (13B8.2), CD8 (B9.11), p24 (clone KC57) (all Immunotech/Beckman Coulter, Marseille, France), CD45 (HI30) (Caltag, Burlingame, Calif.). Intracellular staining for p24 was performed on single cell suspensions from mesenteric lymph nodes and thymus following staining with anti-CD3 antibody. Cells were washed, permeabilized, and fixed by treatment with BD Cytofix/Cytoperm (BD Pharmingen) and stained with anti-p24 antibody in BD Permwash solution (BD Pharmingen) following the manufacturer's instructions. Plasma HIV RNA concentrations were determined by Cobas Amplicor RT-PCR assay (Roche Diagnostics, Basel, Switzerland). Immunohistochemical stainings were performed as previously described (Baenziger et al., 2006). To assess nonspecific binding, tissue from untransplanted and uninfected transplanted mice was stained as controls.\nRag2^−/−γc^−/− mice on a BALB/c background (provided by M. Ito; Central Institute for Experimental Animals, Kawasaki, Japan) were bred and maintained under specific pathogen-free conditions in accordance with the guidelines of the animal facility at the Institute for Research in Biomedicine (Bellinzona) and the Swiss Federal Veterinary Office (Bern). Mouse experiments were reviewed and approved by the Veterinary Commission of the State of Ticino (Bellinzona, Switzerland). CL2 MBP (clodronate) was from Roche Diagnostics (Mannheim, Germany). Preparation of liposomes containing CL2 MBP was done as described previously (68). 6-10 week-old mice received 100 ul of clodronate liposomes intraperitoneally (i.p.) 24 hours prior to irradiation using a single sublethal dose of 4.0 Gray (Gy) from a Cesium 137 source (Biobeam 8000, STS GmbH, Braunschweig, Germany) at 3.75 Gy/min.",
  "note": "Several values for one entry are separate records, joined by “and”; a condition that tells them apart may be missing. Equal entries are not always repeated.",
  "data": [
    {"substance": "hT5Cyp: human TRIM5α fused at serine 322 to human cyclophilin A, SEQ ID NO:12", "values": [
      {"measurement": "reduction in mean viral load vs hT5CypH126Q", "setting": "Example 4, n=5 and n=4", "result": 22, "unit": "fold"},
      {"measurement": "mean peripheral blood CD45^+ cells", "setting": "four weeks post-infection", "result": 6.7, "unit": "%"},
      {"measurement": "percentage CD45^+ cells higher than hT5CypH126Q", "setting": "four weeks post-infection", "result": 15, "unit": "fold"},
      {"measurement": "Viral load", "setting": "individual mice, week 2, listed as wt", "result": "103208 copies RNA/ml and 46007 copies RNA/ml and 43551 copies RNA/ml and 251320 copies RNA/ml and 66416 copies RNA/ml and 358800 copies RNA/ml and 566835 copies RNA/ml and 3811676 copies RNA/ml and 492800 copies RNA/ml and 27826 copies RNA/ml"},
      {"measurement": "Peripheral Blood (2 wks. postinfection) CD4", "setting": "individual mice, listed as wt", "result": "1 percentage of total nucleated cells and 0.44 percentage of total nucleated cells and 0.33 percentage of total nucleated cells and 1.56 percentage of total nucleated cells and 2.7 percentage of total nucleated cells and 7.7 percentage of total nucleated cells and 15.1 percentage of total nucleated cells and 28.3 percentage of total nucleated cells and 1.89 percentage of total nucleated cells and 1.1 percentage of total nucleated cells"},
      {"measurement": "Peripheral Blood (2 wks. postinfection) CD45", "setting": "individual mice, listed as wt", "result": "1.08 percentage of nucleated cells and 0.47 percentage of nucleated cells and 0.24 percentage of nucleated cells and 1.64 percentage of nucleated cells and 2.75 percentage of nucleated cells and 7.86 percentage of nucleated cells and 15.6 percentage of nucleated cells and 28.9 percentage of nucleated cells and 2.12 percentage of nucleated cells and 1.16 percentage of nucleated cells"},
      {"measurement": "Viral load (Corrected for CD4 count)", "setting": "individual mice, listed as wt", "result": "101231 and 104916 and 192227 and 159325 and 24321 and 47206 and 37382 and 134446 and 260305 and 25410"},
      {"measurement": "mean peripheral blood CD4^+ cells", "setting": "two weeks post-infection", "result": 6, "unit": "%"},
      {"measurement": "percentage CD4^+ cells higher than hT5CypH126Q", "setting": "two weeks post-infection", "result": 34, "unit": "fold"}
    ]}
  ]
}
